≈ marks a conversion by molar mass, not a printed value. Non-standard residues stand in square brackets, D forms with d. Residues, ends and D or L forms follow the SMILES beside them. Nspe = C[C@H](NCC(=O)O)c1ccccc1; Nlys = NCCCCNCC(=O)O
Tests used:
[1] = test system: Bacillus subtilis; test: Antibacterial activity against Bacillus subtilis then incubated at 37 degC for 24 hrs by broth dilution assay; type: functional
[2] = test system: Escherichia coli; test: Antibacterial activity against Escherichia coli then incubated at 37 degC for 24 hrs by broth dilution assay; type: functional
[3] = Induction of hemolysis in Sprague-Dawley rat erythrocytes at 200 uM incubated at 37 degC for 60 mins by spectrophotometry; type: cell-based, Erythrocyte; conditions: read-out: Activity
[4] = (§1) Induction of hemolysis in Sprague-Dawley rat erythrocytes incubated at 37 degC for 60 mins by spectrophotometry; type: cell-based, Erythrocyte; conditions: Sprague-Dawley, erythrocytes, read-out: HD50
[5] = test system: Erythrocyte; test: as §1; type: cell-based; conditions: erythrocyte, 1 h
[6] = Cytotoxicity against human MRC5 cells assessed as reduction in cell viability incubated for 24 hrs by MTS assay; type: cell-based; conditions: read-out: LC50
[7] = Cytotoxicity against human LNCAP cells assessed as reduction in cell viability incubated for 24 hrs by MTS assay; type: cell-based; conditions: read-out: LC50
[8] = Cytotoxicity against human Jurkat cells assessed as reduction in cell viability incubated for 24 hrs by MTS assay; type: cell-based; conditions: read-out: LC50

Structure (SMILES) | MIC [1] | MIC [2] | hemolysis at 1 h, 200 µM [3] | HC50 at 1 h [4] | HD10 [5] | CC50 at 24 h [6] | CC50 at 24 h [7] | CC50 at 24 h [8]
C[C@H](c1ccccc1)N(CC(N)=O)C(=O)CN(C(=O)CN(CCCCN)C(=O)CN(C(=O)CN(C(=O)CN(CCCCN)C(=O)CN(C(=O)CN(C(=O)CNCCCCN)[C@H](C)c1ccccc1)[C@@H](C)c1ccccc1)[C@H](C)c1ccccc1)[C@@H](C)c1ccccc1)[C@H](C)c1ccccc1 (stereo in doubt) | 1.6 µM (≈ 2.19 µg/mL) | 3.1 µM (≈ 4.24 µg/mL) | 38.7% | > 200 µM | 119.5 µM | 40 µM | 27 µM | 18.6 µM
Cc1ccc([C@H](C)N(CC(N)=O)C(=O)CN(C(=O)CN(CCCCN)C(=O)CN(C(=O)CN(C(=O)CN(CCCCN)C(=O)CN(C(=O)CN(C(=O)CN(CCCCN)C(=O)CN(C(=O)CN(C(=O)CNCCCCN)[C@@H](C)c2ccc(C)cc2)[C@@H](C)c2ccc(C)cc2)[C@@H](C)c2ccc(C)cc2)[C@@H](C)c2ccc(C)cc2)[C@@H](C)c2ccc(C)cc2)[C@@H](C)c2ccc(C)cc2)[C@@H](C)c2ccc(C)cc2)cc1 | 0.8 µM (≈ 1.55 µg/mL) | > 6.1 µM | 100% | 8.3 µM | < 6.25 µM | 8 µM | 12 µM | –
C[C@@H](c1ccccc1)N(CC(=O)N(CCCCN)CC(=O)N(CC(=O)N(CC(=O)N(CCCCN)CC(=O)N(CC(=O)N(CC(=O)N(CCCCN)CC(N)=O)[C@@H](C)c1ccccc1)[C@@H](C)c1ccccc1)[C@@H](C)c1ccccc1)[C@@H](C)c1ccccc1)C(=O)CN(C(=O)CNCCCCN)[C@@H](C)c1ccccc1 (H-[Nlys][Nspe][Nspe][Nlys][Nspe][Nspe][Nlys][Nspe][Nspe][Nlys]-NH2) | 0.8 µM (≈ 1.2 µg/mL) | 1.6 µM (≈ 2.4 µg/mL) | 9.8% | > 200 µM | > 200 µM | 80.5 µM | – | 28.9 µM
C[C@@H](c1ccc(Cl)cc1)N(CC(N)=O)C(=O)CN(C(=O)CN(CCCCN)C(=O)CN(C(=O)CN(C(=O)CN(CCCCN)C(=O)CN(C(=O)CN(C(=O)CN(CCCCN)C(=O)CN(C(=O)CN(C(=O)CNCCCCN)[C@@H](C)c1ccc(Cl)cc1)[C@@H](C)c1ccc(Cl)cc1)[C@@H](C)c1ccc(Cl)cc1)[C@@H](C)c1ccc(Cl)cc1)[C@@H](C)c1ccc(Cl)cc1)[C@@H](C)c1ccc(Cl)cc1)[C@@H](C)c1ccc(Cl)cc1 | 6.1 µM (≈ 12.8 µg/mL) | > 6.1 µM | 100% | 10.4 µM | < 6.25 µM | 3 µM | 10 µM | 1.58 µM
C[C@@H](c1ccccc1)N(CC(=O)N(CCCCN)CC(=O)N(CC(=O)N(CC(=O)N(CCCCN)CC(=O)N(CC(=O)N(CC(=O)N(CCCCN)CC(=O)N(CC(=O)N(CC(=O)N(CCCCN)CC(N)=O)[C@@H](C)c1ccccc1)[C@@H](C)c1ccccc1)[C@@H](C)c1ccccc1)[C@@H](C)c1ccccc1)[C@@H](C)c1ccccc1)[C@@H](C)c1ccccc1)C(=O)CN(C(=O)CNCCCCN)[C@@H](C)c1ccccc1 (H-[Nlys][Nspe][Nspe][Nlys][Nspe][Nspe][Nlys][Nspe][Nspe][Nlys][Nspe][Nspe][Nlys]-NH2) | 0.4 µM (≈ 0.779 µg/mL) | 1.6 µM (≈ 3.12 µg/mL) | 48.1% | > 200 µM | 19.5 µM | 10 µM | – | 5.04 µM
C[C@@H](c1ccc(F)cc1)N(CC(N)=O)C(=O)CN(C(=O)CN(CCCCN)C(=O)CN(C(=O)CN(C(=O)CN(CCCCN)C(=O)CN(C(=O)CN(C(=O)CN(CCCCN)C(=O)CN(C(=O)CN(C(=O)CNCCCCN)[C@@H](C)c1ccc(F)cc1)[C@@H](C)c1ccc(F)cc1)[C@@H](C)c1ccc(F)cc1)[C@@H](C)c1ccc(F)cc1)[C@@H](C)c1ccc(F)cc1)[C@@H](C)c1ccc(F)cc1)[C@@H](C)c1ccc(F)cc1 | 0.4 µM (≈ 0.785 µg/mL) | 3.1 µM (≈ 6.09 µg/mL) | 100% | < 6.25 µM | < 6.25 µM | 9.5 µM | 9.5 µM | 2.47 µM
CC[C@H](C)[C@H](NC(=O)CN)C(=O)NCC(=O)N[C@@H](CCCCN)C(=O)N[C@@H](Cc1ccccc1)C(=O)N[C@@H](CC(C)C)C(=O)N[C@@H](CCCCN)C(=O)N[C@@H](CCCCN)C(=O)N[C@@H](C)C(=O)N[C@@H](CCCCN)C(=O)N[C@@H](CCCCN)C(=O)N[C@@H](Cc1ccccc1)C(=O)NCC(=O)N[C@@H](CCCCN)C(=O)N[C@@H](C)C(=O)N[C@@H](Cc1ccccc1)C(=O)N[C@H](C(=O)N[C@@H](CCCCN)C(=O)N[C@H](C(=O)N[C@@H](CC(C)C)C(=O)N[C@@H](CCCCN)C(=O)N[C@@H](CCCCN)C(N)=O)[C@@H](C)CC)C(C)C [PEXIGANAN] (H-GIGKFLKKAKKFGKAFVKILKK-NH2) | 0.4 µM (≈ 0.991 µg/mL) | 0.8 µM (≈ 1.98 µg/mL) | 21.5% | > 200 µM | 113.4 µM | 21.2 µM | – | –
C[C@@H](c1ccccc1)N(CC(N)=O)C(=O)CN(C(=O)CN(CCCCN)C(=O)CN(C(=O)CN(C(=O)CN(CCCCN)C(=O)CN(C(=O)CN(C(=O)CN(CCCCN)C(=O)CN(C(=O)CN(C(=O)CNCCCCN)[C@@H](C)c1ccccc1)[C@@H](C)c1ccccc1)[C@@H](C)c1ccccc1)[C@@H](C)c1ccccc1)[C@@H](C)c1ccccc1)[C@@H](C)c1ccccc1)[C@@H](C)c1ccccc1 (H-[Nlys][Nspe][Nspe][Nlys][Nspe][Nspe][Nlys][Nspe][Nspe][Nlys][Nspe][Nspe]-NH2) | 0.8 µM (≈ 1.46 µg/mL) | 1.6 µM (≈ 2.91 µg/mL) | 100% | 63.4 µM | 9.1 µM | 8 µM | 5 µM | 2.21 µM
